In US20050208101A1, “Coating composition for an implantable medical device and method for coating such a device” (priority 2002, published 2005):

System: Human embryonic fibroblasts
Test: Cell proliferation test with extracts of Elastollan films (Giemsa stain, optical density 620 nm)
Type: cell-based
Details: extracts obtained in Eagle's medium 37° C. 3 h; cells incubated 72 h; mitomycin C 20 μg/ml for 2 h
Protocol: Elastollan films containing 0.1 and 0.5% by weight shikonin, and Elastollan films without shikonin, were tested.
Human embryonic fibroblasts were employed in these experiments. The cells were cultivated in Eagle's medium with the addition of 10% fetal calf serum and passaged twice a week using a trypsin-EDTA solution. The cells present after the 14th passage were used for the tests.
Mitomycin C dissolved in culture medium in a concentration of 20 μg/ml was used as […] control.
Extracts from Elastollan films without shikonin, Elastollan films with 0.1% by weight and 0.5% by weight shikonin (based on polyurethane), and shikonin alone, were tested.
Extracts were obtained by incubating dishes covered by the polymers to be tested (i.e. Elastollan films without or with shikonin) with Eagle's medium at 37° C. for 3 h. Undissolved solids were removed by filtering. The control with shikonin only (in the culture medium) was cultivated under the same conditions. […]
The stain retained by the cells was eluted with a phosphate buffer/alcohol mixture (1:1) at room temperature for 15 min. The optical density of the resulting solutions was determined by a spectrophotometer with a wavelength of 620 nm.

## CO[C@@]12[C@H](COC(N)=O)C3=C(C(=O)C(C)=C(N)C3=O)N1C[C@@H]1N[C@@H]12 [mitomycin C, Mitomycin C]
  cell growth of fibroblasts after exposure to the tested extract: no cell growth was observed
